The subject of experiment [1] is patients with chronic decompensated HF. Nature of the experiment: FUSION I: use of IV inotropic agents during study visits. The experiment is classed as in vivo, human. The text has this:
Patients in all treatment groups were allowed to receive any long-term cardiac or noncardiac medications, including IV diuretics, according to investigator discretion. At each visit, the investigator ensured that optimal medical treatment regimens were established. Patients who were randomized to usual care only were allowed to receive positive inotropic agents (milrinone, dobutamine, or dopamine) only if the investigator believed that inotropic support was required to alleviate symptomatic HF and yield hemodynamic stability. Inotropic agents were not permitted in the nesiritide groups unless they were urgently required to prevent hospitalization. During hospitalization, there was no restriction on the use of inotropic agents or nesiritide, regardless of treatment group.

In experiment [2] the test system is acute decompensated heart failure. Particulars: compared with milrinone; cited from earlier work.
In another experiment the test system is endothelin-1. Nature of the experiment: FUSION I: serum endothelin-1. The experiment is classed as in vivo, human. The text has this: Surrogate measures with mechanistic implications included measures of serum aldosterone, serum endothelin-1, and serial measurements of ventricular function using ejection fractions derived from echocardiography. […] Left ventricular ejection fractions were serially measured and read at a core lab (Midwest Heart Foundation Echocardiographic Core Laboratory, Lombard, Ill.).

[3] abbreviates: all patients who received nesiritide.

Some results are limits rather than exact numbers.

For the substance “Nesiritide: a recombinant form of human B-type natriuretic peptide (BNP)”, the “Patients receiving IV inotropic agents during study visits through week 12, number” value in experiment [1] (0.005 μg/kg/min, n = 72) is reported as 0. Moreover, in experiment [1] (0.01 μg/kg/min, n = 69), the “Patients receiving IV inotropic agents during study visits through week 12, %” value is 3% and the “Patients receiving IV inotropic agents during study visits through week 12, number” value stood at 2. For the same substance, in experiment [1] (setting [3]), the “Patients who also received an inotropic agent during a study visit because of decompensated HF, %” value is listed as less than 2% and the “Patients who also received an inotropic agent during a study visit because of decompensated HF, number” value is 2. Also, in experiment [2], the Length of stay result is on record as “shorter length of stay” and the Readmissions entry was “fewer readmissions”. Also, the “Mean change (±standard deviation) in post-infusion concentration of endothelin-1” value with endothelin-1 (0.005-μg/kg/min) is -0.2 ± 1.5 pg/mL. For the same substance, the “Mean change (±standard deviation) in post-infusion concentration of endothelin-1” value in the experiment on endothelin-1 (0.01-μg/kg/min, p=0.04 compared to baseline) is -0.6 ± 2.0 pg/mL. In addition, the “Post-infusion levels of endothelin-1 versus baseline” value in the experiment with endothelin-1 (after the week 12 infusion, all-nesiritide group, p=0.008 (FIG. 2B)) is reported as “significant change from baseline”.

Values taken from patent publication US20050113286A1, “Methods for treating congestive heart failure” (priority 2002, published 2005).
